In patent US10570179B2, “Substituted urea depsipeptide analogs as activators of the CLPP endopeptidase” (priority 2016, dated 2020):
Values after ≈ are worked out from the molar mass of the structure shown. Read-outs that look alike come from different tables or passages of the source. Numbered stars: 1 amine (or outer) side, 2 acyl side, 3 side chain; on linkers, the order of the positions; unused ones are H or OH. Bridge positions count the residues as written; N and C are the ends. Square brackets hold non-standard residues; d marks the D form. Peptide text beside a SMILES is read from it. * marks the point of attachment. Piperazine(2S-CO,4-Me) = CN1CCN[C@H](C(=O)O)C1; NH(1,3-benzodioxol-5-yl) = c1cc2c(cc1N*)OCO2; Morpholine(3S-CO) = O=C(O)[C@@H]1COCCN1; Phe(3-Me) = Cc1cccc(C[C@H](N)C(=O)O)c1; NH(4-Cl-2-F-phenyl) = Fc1cc(Cl)ccc1N*; Pro(4R-Me) = C[C@H]1CN[C@H](C(=O)O)C1; Hyp = O=C(O)[C@@H]1C[C@@H](O)CN1; NH(4-Et-phenyl) = CCc1ccc(N*)cc1; NH(4-Me-phenyl) = Cc1ccc(N*)cc1; aThr = C[C@H](O)[C@H](N)C(=O)O; CO = O=C([*:1])[*:2]

Columns and labels:
[1] = tested on: S. pneumoniae; assay: Minimal inhibitory concentration, microbroth dilution; type: cell-based; conditions: Streptococcus pneumoniae; MIC; read-out: Minimal Inhibitory Concentrations (μM) S. pneumoniae
Outline: (§1)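 MICs were determined by CLSI broth microdilution, using two-fold compound dilutions from a final 200 μM and about 10^5 cfu/mL inoculum. Plates were incubated aerobically at 37 °C overnight. The MIC was read visually as the lowest concentration preventing growth.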

[2] = tested on: S. pyogenes; assay: as above; type: cell-based; conditions: Streptococcus pyogenes; MIC; read-out: Minimal Inhibitory Concentrations (μM) S. pyogenes
Outline: as §1

[3] = Solubility determination; type: physicochemical; conditions: for solubility kinetic at 10 min: 22 °C, aqueous buffer, kinetic from dmso stock
Procedure: Test compounds were synthesized and supplied by the Department of Chemical Biology and Therapeutics at St. Jude Children's Research Hospital (Memphis, Tenn.). LC-MS chromasolv grade acetonitrile (ACN) was purchased from Fisher Scientific (Loughborough, UK). LC-MS chromasolv grade formic acid was obtained from Sigma-Aldrich (St. Louis, Mo.). Milli-Q water as an ultrapure laboratory grade water was used in aqueous mobile phase.
Chromatographic separation was performed on an Acquity UPLC BEH C18 1.7 μm, 2.1×50 mm column (Waters Corporation, Milford, Mass.) using an Acquity ultra performance liquid chromatography system. The total flow rate was 0.9 mL/min. The sample injection volume was 10 μL. The UPLC column was maintained at 60° C. and the gradient program started at 90% A (0.1% formic acid in MilliQ H2O), changed to 70% A over 0.2 min, to 95% B (0.1% formic acid in ACN) over 1.4 minutes, held for 0.35 minutes, then to 90% A over 0.05 minutes.
Mass data was acquired with an Acquity SQD Mass Spectrometer. The mass spectrometer was operated in positive-ion mode with electrospray ionization. The conditions were as follows: capillary voltage 3.5 kV, cone voltage 30 V, source temperature 150° C., desolvation temperature 350° C., desolvation gas 500 L/hr, cone gas 25 L/hr. Data were acquired using Masslynx v. 4.1 and analyzed using the Quanlynx software suite. A full scan range from m/z=100-1000 in 0.2 s was used to acquire MS data. Both UV and Single ion recording mass spectrometry were used to determine the quantification of the samples.
Stock solutions were prepared by dissolving compounds into DMSO to yield a concentration of 10 mM. Stock solutions were stored at room temperature.
Calibration standards were made by adding stock solutions to DMSO for final concentrations of compounds at concentration of 100, 25, 6.25, 1.563, 0.391 and 0.098 μM.
Solubility test samples were made by adding stock solutions to 200 μL, of DPBS for final concentrations of compounds at 100 μM in a 96-well analytical plate (300 μL, maximum volume in each well). Samples were tested in triplicates. The plate was sealed, shaken at 600 rpm for 10 minutes, and then was centrifuged at 4000 rpm for 20 min at 22° C. 100 μL, of the supernatant was transferred to a new analytical 96-well plate and 10 μL, was injected onto the LCMS system.
Two calibration curves for solubility test samples were analyzed during the quantitation process. The linear regression of test compound peak areas was weighted by 1/x^2. […] Coefficient of determination (R^2) was used to evaluate the linearity of each calibration curve.

[4] = Plasma pharmacokinetics; type: in vivo, male BALB/c mice; conditions: for Vd: read-out: Vss
[5] = male, BALB/c, mouse, in vivo, iv, 10 mg/kg, Route i.v.
[6] = male, BALB/c, mouse, in vivo, iv

Row | Compound | MIC [1] [µM] | MIC [2] [µM] | μsol (μM) [3] [µM] | solubility kinetic at 10 min [3] [µM] | C^0 ([4]; Route i.v.) [ng/mL] | AUC(0-inf) ([4]; male, BALB/c, mouse, in vivo, iv, 10 mg/kg, Route i.v., read-out: AUCinf) [ng·h/mL] | AUC(0-t) ([4]; male, BALB/c, mouse, in vivo, iv, 10 mg/kg, Route i.v., read-out: AUClast) [ng·h/mL] | clearance ([4]; male, BALB/c, mouse, in vivo, iv, 10 mg/kg, Route i.v., read-out: CL) [mL/min/kg] | half-life ([4]; male, BALB/c, mouse, in vivo, iv, 10 mg/kg, Route i.v., read-out: T1/2 (converted)) [h] | Vd [4, 5] [L/kg] | solubility kinetic at 10 min ([3]; solubility in DPBS, 100 μM test samples, LCMS, read-out: LCMS) [µM] | μsol (μM) ([3]; solubility) [µM] | AUC(0-inf) [4, 6] [ng·h/mL] | AUC(0-t) [4, 6] [ng·h/mL] | C^0 [4, 6] [ng/mL] | clearance [4, 6] [mL/min/kg] | half-life [4, 6] [h]
1 | Cc1cccc(C[C@H](NC(=O)Nc2ccc3c(c2)OCO3)C(=O)N[C@H]2COC(=O)[C@@H]3C[C@@H](C)CN3C(=O)[C@H](C)NC(=O)[C@@H]3CN(C)CCN3C(=O)[C@@H]3CCCN3C2=O)c1 [Compound 17, (S)-2-(3-(BENZO[D][1,3]DIOXOL-5-YL)UREIDO)-3-(M-TOLYL)-N-((6AS,12S,15AS,17R,21S,23AS)-2,17,21-TRIMETHYL-6,11,15,20,23-PENTAOXOOCTADECAHYDRO-2H,6H,11H,15H-PYRAZINO[2,1-I]DIPYRROLO[2,1-C:2′,1′-L][1]OXA[4,7,10,13]TETRAAZACYCLOHEXADECIN-12-YL)PROPANAMIDE] ({NH(1,3-benzodioxol-5-yl)-CO}-[Phe(3-Me)]SP[Piperazine(2S-CO,4-Me)]A[Pro(4R-Me)]; ester 2-C) | 0.313 (≈ 0.256 µg/mL) | 1.25 (≈ 1.02 µg/mL) | 71.1 ± 0.7 | 64.6 ± 2 (≈ 52.8 µg/mL) | – | – | – | – | – | – | – | – | – | – | – | – | –
2 | Cc1ccc(NC(=O)N[C@@H](Cc2cccc(C)c2)C(=O)N[C@@H]2C(=O)N3C[C@H](O)C[C@H]3C(=O)N3CCN(C)C[C@H]3C(=O)N[C@@H](C)C(=O)N3C[C@H](C)C[C@H]3C(=O)O[C@H]2C)cc1 [Compound 30, (S)—N-((6AS,8R,12S,13S,15AS,17R,21S,23AS)-8-HYDROXY-2,13,17,21-TETRAMETHYL-6,11,15,20,23-PENTAOXOOCTADECAHYDRO-2H,6H,11H,15H-PYRAZINO[2,1-I]DIPYRROLO[2,1-C:2′,1′-L][1]OXA[4,7,10,13]TETRAAZACYCLOHEXADECIN-12-YL)-3-(M-TOLYL)-2-(3-(P-TOLYL)UREIDO)PROPANAMIDE] ({NH(4-Me-phenyl)-CO}-[Phe(3-Me)][aThr][Hyp][Piperazine(2S-CO,4-Me)]A[Pro(4R-Me)]; ester 2-C) | – | – | – | – | 12355.62 | 2650 | 2620 | 63 | 2.08 | 1.74 | 68.8 ± 8.8 (≈ 56.2 µg/mL) | 54.5 ± 4.5 | – | – | – | – | –
3 | CCc1ccc(NC(=O)N[C@@H](Cc2cccc(C)c2)C(=O)N[C@@H]2C(=O)N3C[C@H](O)C[C@H]3C(=O)N3CCOC[C@H]3C(=O)N[C@@H](C)C(=O)N3C[C@H](C)C[C@H]3C(=O)O[C@H]2C)cc1 [Compound 24, (S)-2-(3-(4-ETHYLPHENYL)UREIDO)-N-((6AS,8R,12S,13S,15AS,17R,21S,23AS)-8-HYDROXY-13,17,21-TRIMETHYL-6,11,15,20,23-PENTAOXOOCTADECAHYDRO-6H,11H,15H-[1,4]OXAZINO[3,4-I]DIPYRROLO[2,1-C:2′,1′-L][1]OXA[4,7,10,13]TETRAAZACYCLOHEXADECIN-12-YL)-3-(M-TOLYL)PROPANAMIDE] ({NH(4-Et-phenyl)-CO}-[Phe(3-Me)][aThr][Hyp][Morpholine(3S-CO)]A[Pro(4R-Me)]; ester 2-C) | – | – | 48.4 ± 0.7 | 43.7 ± 0.9 (≈ 35.7 µg/mL) | – | – | – | – | – | 0.51 | – | – | 3870 | 3850 | 27083.47 | 43 | 0.34
4 | Cc1cccc(C[C@H](NC(=O)Nc2ccc(Cl)cc2F)C(=O)N[C@H]2COC(=O)[C@@H]3C[C@@H](C)CN3C(=O)[C@H](C)NC(=O)[C@@H]3CN(C)CCN3C(=O)[C@@H]3CCCN3C2=O)c1 [Compound 13, (S)-2-(3-(4-CHLORO-2-FLUOROPHENYL)UREIDO)-3-(M-TOLYL)-N-((6AS,12S,15AS,17R,21S,23AS)-2,17,21-TRIMETHYL-6,11,15,20,23-PENTAOXOOCTADECAHYDRO-2H,6H,11H,15H-PYRAZINO[2,1-I]DIPYRROLO[2,1-C:2′,1′-L][1]OXA[4,7,10,13]TETRAAZACYCLOHEXADECIN-12-YL)PROPANAMIDE] ({NH(4-Cl-2-F-phenyl)-CO}-[Phe(3-Me)]SP[Piperazine(2S-CO,4-Me)]A[Pro(4R-Me)]; ester 2-C) | 0.156 (≈ 0.129 µg/mL) | 0.313 (≈ 0.258 µg/mL) | 38.3 ± 2.2 | 40.1 ± 4.6 (≈ 33.1 µg/mL) | – | – | – | – | – | – | – | – | – | – | – | – | –
